Patent publication US7388027B2, “Bicyclic compounds as modulators of androgen receptor function and method” (Bristol-Myers Squibb Company, priority 2004, dated 2008)

What was measured:
AR = target: T1, AR (Rattus norvegicus, UniProt P15207)
T1 sequence (P15207 1-902): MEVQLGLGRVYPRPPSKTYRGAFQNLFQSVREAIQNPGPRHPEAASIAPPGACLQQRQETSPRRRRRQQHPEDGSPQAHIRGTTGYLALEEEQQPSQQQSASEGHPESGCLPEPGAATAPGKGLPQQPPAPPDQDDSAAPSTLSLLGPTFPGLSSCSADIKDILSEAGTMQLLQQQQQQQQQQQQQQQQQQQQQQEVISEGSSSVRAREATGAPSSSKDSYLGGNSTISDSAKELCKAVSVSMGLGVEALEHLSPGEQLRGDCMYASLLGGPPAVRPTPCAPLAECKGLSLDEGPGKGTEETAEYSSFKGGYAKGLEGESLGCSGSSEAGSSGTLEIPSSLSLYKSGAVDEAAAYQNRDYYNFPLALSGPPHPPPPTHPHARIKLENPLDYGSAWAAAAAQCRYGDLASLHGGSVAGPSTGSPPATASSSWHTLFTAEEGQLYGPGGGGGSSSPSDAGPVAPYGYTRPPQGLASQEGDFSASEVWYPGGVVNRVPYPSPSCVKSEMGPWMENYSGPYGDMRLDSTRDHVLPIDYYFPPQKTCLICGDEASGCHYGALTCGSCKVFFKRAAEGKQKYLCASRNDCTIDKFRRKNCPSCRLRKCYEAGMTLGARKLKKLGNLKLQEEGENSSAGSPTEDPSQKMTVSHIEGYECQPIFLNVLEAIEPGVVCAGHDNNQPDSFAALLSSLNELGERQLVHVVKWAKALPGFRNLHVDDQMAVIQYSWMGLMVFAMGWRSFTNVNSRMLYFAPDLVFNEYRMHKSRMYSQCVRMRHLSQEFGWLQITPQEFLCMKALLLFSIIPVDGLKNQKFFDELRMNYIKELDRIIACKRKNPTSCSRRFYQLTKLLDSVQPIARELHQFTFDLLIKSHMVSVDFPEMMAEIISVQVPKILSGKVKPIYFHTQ
Source text: The activity of compounds of the present invention as AR agonists was investigated in an immature male rat model, a recognized test of anabolic effects in muscle and sustaining effects in sex organs for a given compound, as described in L. G. Hershberger et al., Proc. Soc. […] Biol. Med., 83, 175 (1953); B. L. Beyler et al, “Methods for evaluating anabolic and catabolic agents in laboratory animals”, J. Amer. Med. Women's Ass., 23, 708 (1968); H. Fukuda et al., “Investigations of the levator ani muscle as an anabolic steroid assay”, Nago Dai. Yak. Ken. Nem. 14, 84 (1966) the disclosures of which are herein incorporated by reference.
The basis of this assay lies in the well-defined action of androgenic agents on the maintenance and growth of muscle tissues and sexual accessory organs in animals and man. […] J. Anat. […] I. Quantitative data” Boll.-Soc. Ital. Biol. Sper. […] II. Electron-microscopic observations” Boll.-Soc. Ital. Biol. Sper. 42, 1600 (1966); A. Boris et al., Steroids 15, 61 (1970). As described above, the effects of androgens on maintenance of male sexual accessory organs, such as the prostate and seminal vesicles, is well described. Castration results in rapid involution and atrophy of the prostate and seminal vesicles. This effect can be reversed by exogenous addition of androgens. […]

[1] = system: endogenous glucocorticoid receptor (A549 cells, AP-1 luciferase reporter); test: In vitro assay to measure GR-induced AP-1 transrepression (luciferase reporter in A549 cells); format: cell-based; conditions: concentration of ≦10 μM; 10 ng/mL PMA; 7 h; typical value
Protocol: The AP-1 assay is a cell-based luciferase reporter assay. A549 cells, which contain endogenous glucocorticoid receptor, were stably transfected with an AP-1 DNA binding site attached to the luciferase gene. Cells are then grown in RPMI+10% fetal calf serum (charcoal-treated)+Penicillin/Streptomycin with 0.5 mg/mL geneticin. Cells are plated the day before the assay at approximately 40000 cells/well. On assay day, the media is removed by aspiration and 20 μL assay buffer (RPMI without phenol red+10% FCS (charcoal-treated)+Pen/Strep) is added to each well. At this point either 20 μL assay buffer (control experiments), the compounds of the present invention (“test compounds”) (dissolved in DMSO and added at varying concentrations) or dexamethasome (100 nM in DMSO, positive control) are added to each well. The plates are then pre-incubated for 15 min at 37° C., followed by stimulation of the cells with 10 ng/mL PMA. The plates are then incubated for 7 h at 37° C. after which 40 μL luciferase substrate reagent is added to each well. Activity is measured by analysis in a luminometer as compared to control experiments treated with buffer or dexamethasome.

[2] = system: wild type AR (MDA 453 cells); conditions: read-out: Kd for [3H]-DHT, Scatchard analysis, 4 h at 37° C.
Protocol: For the whole-cell binding assay, human LNCaP cells (T877A mutant AR) or MDA 453 (wild type AR) in 96-well microtiter plates containing RPMI 1640 or DMEM supplemented with 10% charcoal stripped CA-FBS (Cocaleco Biologicals) respectively, were incubated at 37° C. to remove any endogenous ligand that might be complexed with the receptor in the cells.
For the saturation analysis, the difference between the total binding and the non-specific binding, was defined as specific binding. […] See e.g. D. Rodbard, Mathematics and statistics of ligand assays: an illustrated guide: In: J. Langon and J. J. Clapp, eds., Ligand Assay, Masson Publishing U.S.A., Inc., New York, pp. 45-99, (1981), the disclosure of which is herein incorporated by reference.
[formula] After correcting for non-specific binding, IC50 values were determined. […] C2C12 Mouse Myoblast Transactivation Assay

For CCC(=O)O[C@H]1CC[C@H]2[C@@H]3CCC4=CC(=O)CC[C@]4(C)[C@H]3CC[C@]12C [TP, testosterone propionate], the “EC50 (increase in organ weight)” value (AR; immature castrated rats) was about 0.03 mg and the “potency relative to free T” value (AR; organ weight increase, rats) was 10-30 fold.

For C[C@@H]1C[C@H]2[C@@H]3CCC4=CC(=O)C=C[C@]4(C)[C@@]3(F)[C@@H](O)C[C@]2(C)[C@@]1(O)C(=O)CO [dexamethasone], the “suppression of activity (% inhibition of the reporter system vs buffer control with PMA alone)” value [1] was 65%.

Compound “tritiated dihydrotestosterone [[^3H]-DHT]” has a Kd [2] of 0.7 nM.
